Measured values published in PMC3130785, “Small Compound 6-O-Angeloylplenolin Induces Mitotic Arrest and Exhibits Therapeutic Potentials in Multiple Myeloma” (PLoS ONE, 2011).

Assays:
MM.1R cells = assay: MTT assay, Dex with or without 6-OAP; format: cell-based, human; conditions: 48 h, 6-OAP 7.5 µM
Protocol: U266, RPMI 8226 cells (1×10^4), primary CD138+ cells, PBMCs (5×10^4), and BMSCs (1×10^4) were cultured in 96-well dishes and incubated without or with 6-OAP at indicated concentration for 48 h. MM.1S and MM.1R cells (2×10^4) were seeded into 96-well dishes and pre-cultured for 24 h, then treated with 6-OAP for 48 h. Cell proliferation was determined by MTT assay. Cell viability was estimated by trypan blue dye exclusion.
Figure 4 6-OAP enhances cytotoxicity of Dox, Dex and BOR to MM cells. (A through C) MM.1S cells were treated for 48 h with Dox (A), Dex (B) or BOR (C) in the presence or absence of 6-OAP at 5 µM. MTT assay was used to test the proliferation of MM.1S cells. (D) MM.1R cells were treated for 48 h with Dex in the presence or absence of 6-OAP at 7.5 µM. MTT assay was used to test the proliferation of MM.1R cells. *p<.001,** p<.05. (E) MM.1S cells were cultured with control media (con), 6-OAP (O, 5 µM), BOR (B, 3 nM), or 6-OAP (5 µM) plus BOR (3 nM) (OB) for indicated time points. Cells were then lysed and subjected to Western blotting using indicated antibodies. CF, cleavage fragment.

[1] = system: human colorectum, liver, stomach, lung, and skin tumor cells; set-up: method as in PMID 20183316; conditions: preliminary data; cited from earlier work

## CC=C(C)C(=O)OC1C2C(CC(C)C3C=CC(=O)C31C)OC(=O)C2C (centres unmarked) [6-OAP, 6-O-angeloylplenolin]
MM.1R cells
  effect on inhibitory effect of Dex: drastically potentiated inhibitory effect
[1]
  proliferation of tumor cells: could inhibit proliferation
